Measured values published in the supplement of paper PMC3937590.

Legend:
Assay in all cases: -log10 GI50 (growth inhibition 50%) (-log10(M)); higher = more potent growth inhibition
[1] = tested on: SUM149PT
Summary of the method: (§1)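 A value carrying a < qualifier equals the top dose tested. Each compound was tested in triplicate on breast cancer cell lines for 72 hours at nine doses in 1:5 serial dilution, using a luminescence read-out against a time-zero plate. Nonlinear least squares fitting of a Gompertz curve gave GI50, the molar concentration causing the set level of growth inhibition, which is reported as its negative logarithm. The logarithm is base 10.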

[2] = tested on: MCF10A
Summary of the method: as §1

[3] = tested on: MDAMB175VII
Summary of the method: as §1

[4] = tested on: BT20
Summary of the method: as §1

[5] = tested on: HCC70
Summary of the method: as §1

[6] = tested on: BT549
Summary of the method: as §1

[7] = tested on: HCC1187
Summary of the method: as §1

[8] = tested on: MCF12A
Summary of the method: as §1

[9] = tested on: MDAMB361
Summary of the method: as §1

[10] = tested on: HCC3153
Summary of the method: as §1

[11] = tested on: MDAMB157
Summary of the method: as §1

[12] = tested on: UACC812
Summary of the method: as §1

[13] = tested on: HCC2185
Summary of the method: as §1

[14] = tested on: SUM1315MO2
Summary of the method: as §1

[15] = tested on: MCF10F
Summary of the method: as §1

[16] = tested on: 184A1
Summary of the method: as §1

[17] = tested on: MDAMB231
Summary of the method: as §1

[18] = tested on: HCC1806
Summary of the method: as §1

[19] = tested on: MDAMB415
Summary of the method: as §1

[20] = tested on: HCC1143
Summary of the method: as §1

[21] = tested on: MDAMB453
Summary of the method: as §1

[22] = tested on: T47D
Summary of the method: as §1

[23] = tested on: HCC1569
Summary of the method: as §1

[24] = tested on: SKBR3
Summary of the method: as §1

[25] = tested on: ZR75B
Summary of the method: as §1

[26] = tested on: SUM159PT
Summary of the method: as §1

[27] = tested on: HCC1428
Summary of the method: as §1

[28] = tested on: HCC38
Summary of the method: as §1

[29] = tested on: ZR751
Summary of the method: as §1

[30] = tested on: 184B5
Summary of the method: as §1

[31] = tested on: T47D_KBluc
Summary of the method: as §1

[32] = tested on: SUM229PE
Summary of the method: as §1

[33] = tested on: HCC1954
Summary of the method: as §1

[34] = tested on: SUM225CWN
Summary of the method: as §1

[35] = tested on: BT474
Summary of the method: as §1

[36] = tested on: MCF7
Summary of the method: as §1

[37] = tested on: HCC1937
Summary of the method: as §1

[38] = tested on: MDAMB134VI
Summary of the method: as §1

[39] = tested on: AU565
Summary of the method: as §1

[40] = tested on: CAMA1
Summary of the method: as §1

[41] = tested on: SUM52PE
Summary of the method: as §1

[42] = tested on: BT483
Summary of the method: as §1

[43] = tested on: SUM185PE
Summary of the method: as §1

[44] = tested on: HS578T
Summary of the method: as §1

[45] = tested on: HCC1419
Summary of the method: as §1

[46] = tested on: HCC1395
Summary of the method: as §1

[47] = tested on: MX1
Summary of the method: as §1

[48] = tested on: LY2
Summary of the method: as §1

[49] = tested on: 600MPE
Summary of the method: as §1

[50] = tested on: HCC202
Summary of the method: as §1

[51] = tested on: HBL100
Summary of the method: as §1

Structure (SMILES): C[C@]12O[C@H](C[C@]1(O)CO)n1c3ccccc3c3c4c(c5c6ccccc6n2c5c31)CNC4=O [Lestaurtinib]
- -log10 GI50 [1]: 7.12
- -log10 GI50 [2]: 6.26
- -log10 GI50 [3]: 6.09
- -log10 GI50 [4]: 5.53
- -log10 GI50 [5]: 6.71
- -log10 GI50 [6]: 6.19
- -log10 GI50 [7]: 6.13
- -log10 GI50 [8]: 6.33
- -log10 GI50 [9]: 6.45
- -log10 GI50 [10]: 5.06
- -log10 GI50 [11]: 6.46
- -log10 GI50 [12]: 5.75
- -log10 GI50 [13]: 5.52
- -log10 GI50 [14]: 7.45
- -log10 GI50 [15]: 5.72
- -log10 GI50 [16]: 5.87
- -log10 GI50 [17]: 6.14
- -log10 GI50 [18]: 6.79
- -log10 GI50 [19]: 6.46
- -log10 GI50 [20]: 6.48
- -log10 GI50 [21]: 6.19
- -log10 GI50 [22]: 5.25
- -log10 GI50 [23]: 6.19
- -log10 GI50 [24]: 6
- -log10 GI50 [25]: 6.34
- -log10 GI50 [26]: 6.55
- -log10 GI50 [27]: 6.3
- -log10 GI50 [28]: 7.06
- -log10 GI50 [29]: 5.75
- -log10 GI50 [30]: 6.49
- -log10 GI50 [31]: 5.17
- -log10 GI50 [32]: 6.48
- -log10 GI50 [33]: 5.31
- -log10 GI50 [34]: 6.03
- -log10 GI50 [35]: 6.61
- -log10 GI50 [36]: 5.84
- -log10 GI50 [37]: 6.21
- -log10 GI50 [38]: 6.33
- -log10 GI50 [39]: 6.07
- -log10 GI50 [40]: 5.42
- -log10 GI50 [41]: 6.87
- -log10 GI50 [42]: 6.21
- -log10 GI50 [43]: 7.2
- -log10 GI50 [44]: 5.99
- -log10 GI50 [45]: 5.94
- -log10 GI50 [46]: 6.91
- -log10 GI50 [47]: 7.17
- -log10 GI50 [48]: 6.6
- -log10 GI50 [49]: 5.77

Structure (SMILES): Nc1nc2[nH]cc(CCc3ccc(C(=O)N[C@@H](CCC(=O)O)C(=O)O)cc3)c2c(=O)[nH]1 [Pemetrexed]
- -log10 GI50 [1]: < 2.53
- -log10 GI50 [2]: < 2.53
- -log10 GI50 [3]: 8.1
- -log10 GI50 [4]: < 2.53
- -log10 GI50 [5]: < 2.53
- -log10 GI50 [6]: < 2.53
- -log10 GI50 [7]: < 2.53
- -log10 GI50 [8]: 6.72
- -log10 GI50 [9]: 6.19
- -log10 GI50 [10]: < 2.53
- -log10 GI50 [11]: < 2.53
- -log10 GI50 [12]: < 2.53
- -log10 GI50 [13]: < 2.53
- -log10 GI50 [14]: < 2.53
- -log10 GI50 [15]: < 2.53
- -log10 GI50 [16]: 6.38
- -log10 GI50 [17]: < 2.53
- -log10 GI50 [18]: 6.05
- -log10 GI50 [19]: < 2.53
- -log10 GI50 [20]: < 2.53
- -log10 GI50 [21]: < 2.53
- -log10 GI50 [22]: < 2.53
- -log10 GI50 [23]: < 2.53
- -log10 GI50 [24]: 5.02
- -log10 GI50 [25]: < 2.53
- -log10 GI50 [26]: < 2.53
- -log10 GI50 [27]: < 2.53
- -log10 GI50 [28]: < 2.53
- -log10 GI50 [29]: 5.05
- -log10 GI50 [30]: 6.44
- -log10 GI50 [31]: < 2.53
- -log10 GI50 [32]: 4.53
- -log10 GI50 [33]: < 2.53
- -log10 GI50 [34]: < 2.53
- -log10 GI50 [35]: < 2.53
- -log10 GI50 [36]: < 2.53
- -log10 GI50 [37]: 3.17
- -log10 GI50 [38]: < 2.53
- -log10 GI50 [39]: < 2.53
- -log10 GI50 [40]: 4.62
- -log10 GI50 [41]: < 2.53
- -log10 GI50 [50]: 5.11
- -log10 GI50 [42]: < 2.53
- -log10 GI50 [43]: < 2.53
- -log10 GI50 [44]: 4.59
- -log10 GI50 [45]: < 2.53
- -log10 GI50 [46]: < 2.53
- -log10 GI50 [47]: < 2.53
- -log10 GI50 [48]: 6.33
- -log10 GI50 [49]: < 2.53

Structure (SMILES): CNC(=O)c1cc(Oc2ccc(NC(=O)Nc3ccc(Cl)c(C(F)(F)F)c3)cc2)ccn1 [Sorafenib]
- -log10 GI50 [1]: 4.8
- -log10 GI50 [2]: 4.31
- -log10 GI50 [3]: 4.46
- -log10 GI50 [4]: 4.2
- -log10 GI50 [5]: 4.45
- -log10 GI50 [6]: 4.08
- -log10 GI50 [7]: 4.49
- -log10 GI50 [8]: 4.62
- -log10 GI50 [9]: 4.22
- -log10 GI50 [10]: 4.31
- -log10 GI50 [11]: 3.78
- -log10 GI50 [13]: 4.83
- -log10 GI50 [14]: 4.55
- -log10 GI50 [15]: 4.46
- -log10 GI50 [16]: 5.53
- -log10 GI50 [17]: 3.84
- -log10 GI50 [18]: 4.23
- -log10 GI50 [19]: 3.96
- -log10 GI50 [51]: 4.33
- -log10 GI50 [20]: 4.23
- -log10 GI50 [21]: 3.09
- -log10 GI50 [22]: 4.59
- -log10 GI50 [23]: 4.27
- -log10 GI50 [24]: 4.35
- -log10 GI50 [25]: 3.16
- -log10 GI50 [26]: 4.66
- -log10 GI50 [27]: 4.34
- -log10 GI50 [28]: 4.07
- -log10 GI50 [29]: 4.43
- -log10 GI50 [30]: 5.48
- -log10 GI50 [31]: 4.38
- -log10 GI50 [32]: 5
- -log10 GI50 [33]: 4.29
- -log10 GI50 [34]: 4.6
- -log10 GI50 [35]: 4.16
- -log10 GI50 [36]: 4.19
- -log10 GI50 [37]: 3.76
- -log10 GI50 [38]: 4.54
- -log10 GI50 [39]: 3.94
- -log10 GI50 [40]: 4.22
- -log10 GI50 [41]: 5.77
- -log10 GI50 [50]: 4.14
- -log10 GI50 [42]: 4.92
- -log10 GI50 [43]: 5.83
- -log10 GI50 [44]: < 3
- -log10 GI50 [45]: 4
- -log10 GI50 [46]: 4.32
- -log10 GI50 [49]: 4.36
